What was measured:
[1] = molecular target: T1, lactase obtained from a strain of Aspergillus oryzae (extracellular enzyme, unimmobilized) (Aspergillus oryzae, UniProt Q2UCU3); experiment: Km and Ki of the unimmobilized lactase, lactose hydrolysis; type: biochemical
T1 construct: the lactase obtained from a strain of Aspergillus oryzae having; host or cells: Aspergillus oryzae (natural producer)
T1 sequence (Q2UCU3 19-1005): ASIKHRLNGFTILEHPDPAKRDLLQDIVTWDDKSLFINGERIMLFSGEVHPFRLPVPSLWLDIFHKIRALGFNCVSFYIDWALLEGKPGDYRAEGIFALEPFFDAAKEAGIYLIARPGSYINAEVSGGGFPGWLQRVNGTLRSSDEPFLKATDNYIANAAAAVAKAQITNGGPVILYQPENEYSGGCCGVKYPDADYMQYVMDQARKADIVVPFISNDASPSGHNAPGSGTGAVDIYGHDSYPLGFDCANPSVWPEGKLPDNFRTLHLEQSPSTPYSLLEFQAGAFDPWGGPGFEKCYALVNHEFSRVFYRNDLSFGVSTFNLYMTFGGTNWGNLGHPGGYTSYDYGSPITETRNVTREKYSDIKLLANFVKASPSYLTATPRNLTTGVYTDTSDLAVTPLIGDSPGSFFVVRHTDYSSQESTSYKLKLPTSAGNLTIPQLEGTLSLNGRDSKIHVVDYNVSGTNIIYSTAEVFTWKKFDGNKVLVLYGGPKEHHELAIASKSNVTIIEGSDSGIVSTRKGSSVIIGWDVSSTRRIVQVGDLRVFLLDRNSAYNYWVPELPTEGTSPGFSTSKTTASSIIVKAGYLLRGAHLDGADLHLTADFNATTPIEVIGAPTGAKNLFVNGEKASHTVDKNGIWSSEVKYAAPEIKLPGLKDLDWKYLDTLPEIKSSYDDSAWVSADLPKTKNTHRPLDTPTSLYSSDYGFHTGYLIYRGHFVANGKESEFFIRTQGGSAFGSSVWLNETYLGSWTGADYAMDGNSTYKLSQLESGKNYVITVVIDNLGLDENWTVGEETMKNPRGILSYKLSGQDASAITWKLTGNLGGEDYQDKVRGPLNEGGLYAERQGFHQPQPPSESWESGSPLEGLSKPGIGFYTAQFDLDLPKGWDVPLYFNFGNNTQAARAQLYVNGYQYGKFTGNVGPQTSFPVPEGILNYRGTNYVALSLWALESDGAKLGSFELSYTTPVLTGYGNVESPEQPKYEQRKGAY
Protocol: Ki=7±4 mole/m^3 (0.007±0.004 molell) (pH 4.5, 30°C, substrate; lactose). It is believed that the characteristics of the lactase are well defined by the above data, and some other properties are given below:
In the present specification, 1 ILU is defined as the amount of lactase which produces 1 µ mole per minute of glucose at pH 4.5 at 30°C when a 13.3 w/v% of lactose solution is used as the substrate. The quantity of glucose thus prepared is defined by using glycose oxidase-peroxidase- dye system. When the measurement of the activity (unit) is carried out at a different pH or temperature, the pH or the temperature will specifically be given in each case.

[2] = molecular target: T2, immobilized lactase: Aspergillus oryzae lactase covalently attached (glutaraldehyde) on macroporous amphoteric phenol-formaldehyde ion-exchange resin (Aspergillus oryzae, UniProt Q2UCU3); experiment: Km and Ki of the immobilized lactase, general characteristics; type: biochemical; conditions: pH 4.5, 30°C, substrate; lactose; value in brackets
T2 construct: the lactase originated from Aspergillus oryzae is immobilized on one of the carriers; host or cells: Aspergillus oryzae (natural producer)
Protocol: The immobilized lactase (0.1 to 0.3 ml) is suspended in a 0.05M acetate buffer solution (pH 4.5). To this solution, a solution of lactose in the same kind of buffer solution as above is added to give a 13.3 w/v % lactose solution. The solution was shaken at 30°C for 15 minutes with a shaker (100 rpm, shaking width; 3.5 cm). After the removal of the immobilized lactase by filtration, the content of the glucose in the filtrate is determined using glucose oxidase, peroxidase and dye system. The amount of the enzyme which produces 1 p mole of glucose in one minute is defined as 1 unit (1 ILU). The pH level and the temperature of the measurement of the activity will be stated in each case in the specification.

SMILES | Ki ([1]; read-out: Inhibition constant by galactose Ki, pH 4.5, 30°C, substrate, lactose, value in brackets) [mM] | Inhibition constant by galactose Ki [2] [mM] | Km value ([1]; lactase dry powder of Example 3 (Shinnihon Kagaku Kogyo Co., 73 ILU/mg)) [mole/I] | Michaelis constant Km [2] [mole/I]
OC[C@H]1OC(O)[C@H](O)[C@@H](O)[C@H]1O (stereo partly shown) [galactose] | 7 ± 4 | 150 ± 100 | – | –
OC[C@H]1O[C@@H](O[C@H]2[C@H](O)[C@@H](O)C(O)O[C@@H]2CO)[C@H](O)[C@@H](O)[C@H]1O (stereo partly shown) [lactose] | – | – | 0.11 | 0.15±0.1
